Measured values from ChEMBL document CHEMBL1201862, “PubChem BioAssay data set” (2004).
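Step 1: Grow cells in 96-well plates. Step 2: Expose to compound for 48 hours at 5 concentrations. Step 3: Interpolate endpoints linearly; if unreached, use highest concentration. At the GI50, growth is halved.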 Activity calls are given as the source filed them. No stated cut-off is given here; in the data, active = GI50 up to about 1.1 µM and inactive = higher.

How the values were obtained:
Assay in all cases: DTP human tumour cell line panel, 48 h
[1] = system: A498
[2] = system: A549
[3] = system: BT-549
[4] = system: CAKI-1
[5] = system: CCRF-CEM
[6] = system: COLO 205
[7] = system: EKVX
[8] = system: HCC 2998
[9] = system: IGROV-1
[10] = system: LXFL 529
[11] = system: MDA-MB-435
[12] = system: Malme-3M
[13] = system: NCI-H226
[14] = system: NCI/ADR-RES
[15] = system: OVCAR-3
[16] = system: OVCAR-5
[17] = system: PC-3
[18] = system: RPMI-8226
[19] = system: RXF 393
[20] = system: SNB-19

Row | Compound | GI50 [1] | GI50 [2] | GI50 [3] | GI50 [4] | GI50 [5] | GI50 [6] | GI50 [7] | GI50 [8] | GI50 [9] | GI50 [10] | GI50 [11] | GI50 [12] | GI50 [13] | GI50 [14] | GI50 [15] | GI50 [16] | GI50 [17] | GI50 [18] | GI50 [19] | GI50 [20]
1 | COc1cc(-c2ccc(Nc3ccccc3C(=O)O)c(OC)c2)ccc1Nc1ccccc1C(=O)O | > 47.2 µM (inactive) | 4.22 µM (inactive) | 15.8 µM (inactive) | 8.69 µM (inactive) | 2.38 µM (inactive) | 48.3 µM (inactive) | 58.7 µM (inactive) | 21.7 µM (inactive) | 21 µM (inactive) | 1.68 µM (inactive) | 8.59 µM (inactive) | 39.6 µM (inactive) | 22.6 µM (inactive) | > 46.2 µM (inactive) | 20.6 µM (inactive) | > 37.5 µM (inactive) | 2 µM (inactive) | 2.33 µM (inactive) | 21.2 µM (inactive) | 10.2 µM (inactive)
2 | CC[C@@]1(O)C(=O)OCc2c1c(Cl)c1n(c2=O)Cc2cc3ccccc3nc2-1 | 2.18 µM (inactive) | 2.06 µM (inactive) | 8.67 µM (inactive) | 0.736 µM (active) | 0.372 µM (active) | 5.52 µM (inactive) | 6.1 µM (inactive) | 3.4 µM (inactive) | 4.08 µM (inactive) | 8.15 µM (inactive) | 8.95 µM (inactive) | 4.53 µM (inactive) | 2.14 µM (inactive) | 1.8 µM (inactive) | 6.35 µM (inactive) | 5.07 µM (inactive) | 4.93 µM (inactive) | 1.73 µM (inactive) | 2.52 µM (inactive) | 2.36 µM (inactive)
3 | CCOc1ccc(NC(=O)CC2C(=O)Nc3ccccc3[S+]2[O-])cc1 (configuration not stated) | > 64 µM (inactive) | > 94 µM (inactive) |  | > 67 µM (inactive) | > 100 µM (inactive) | > 100 µM (inactive) | > 46.5 µM (inactive) | > 64.7 µM (inactive) | > 90.6 µM (inactive) | > 80 µM (inactive) |  | 98.2 µM (inactive) | > 64.7 µM (inactive) |  | > 59.7 µM (inactive) | > 100 µM (inactive) |  | > 100 µM (inactive) | 37.8 µM (inactive) | 59.6 µM (inactive)
4 | Cc1cc2c(C(C)C)c(O)c(O)c(/C=N\CCO)c2c(O)c1-c1c(C)cc2c(C(C)C)c(O)c(O)c(/C=N/CCO)c2c1O | 3.36 µM (inactive) | 1.21 µM (inactive) |  | 5.24 µM (inactive) | 0.653 µM (active) | 1.63 µM (inactive) | 2.28 µM (inactive) | 2.9 µM (inactive) | 1.91 µM (inactive) | 1.64 µM (inactive) |  | 2.47 µM (inactive) | 2.51 µM (inactive) |  | 2.02 µM (inactive) | 3.66 µM (inactive) |  | 1.19 µM (inactive) | 3.56 µM (inactive) | 2.05 µM (inactive)
5 | O=[N+]([O-])c1ccc(C2CC(c3ccccc3Cl)=Nc3ccccc3[S+]2[O-])cc1 (configuration not stated) | 2.34 µM (inactive) | 9.64 µM (inactive) | 13.7 µM (inactive) | 2.48 µM (inactive) | 1.48 µM (inactive) | 7.69 µM (inactive) | 15 µM (inactive) | 2.92 µM (inactive) | 2.77 µM (inactive) | 1.79 µM (inactive) |  | 9.91 µM (inactive) | 5.86 µM (inactive) |  | 3.48 µM (inactive) | 3.71 µM (inactive) | 4.67 µM (inactive) | 1.77 µM (inactive) | 1.8 µM (inactive) | 3.63 µM (inactive)
6 | COC(=O)CCC(=O)CC(=O)C(=O)Nc1c(Cl)cc([N+](=O)[O-])cc1Cl | 57.3 µM (inactive) | > 100 µM (inactive) |  | 61.8 µM (inactive) | 57.3 µM (inactive) | > 100 µM (inactive) | 51.8 µM (inactive) | > 100 µM (inactive) | > 100 µM (inactive) | > 100 µM (inactive) |  | > 100 µM (inactive) | > 100 µM (inactive) |  | > 100 µM (inactive) | > 100 µM (inactive) |  | 33.4 µM (inactive) | > 100 µM (inactive) | > 100 µM (inactive)
7 | COc1c(OC2OC(CO)C(O)C(O)C2O)cc2c(c1OC)-c1ccc(OC)c(=O)cc1[C@@H](NC(C)=O)CC2 (some centres not stated) | > 100 µM (inactive) | > 100 µM (inactive) |  | > 100 µM (inactive) | 65.2 µM (inactive) | > 100 µM (inactive) | > 100 µM (inactive) | > 93.3 µM (inactive) | 83 µM (inactive) | 54.1 µM (inactive) |  | 61.5 µM (inactive) | > 100 µM (inactive) |  | 39.5 µM (inactive) | > 100 µM (inactive) |  | > 82.2 µM (inactive) | 57.4 µM (inactive) | > 100 µM (inactive)
